Reference: paper PMC7988117, “OMN6 a novel bioengineered peptide for the treatment of multidrug resistant Gram negative bacteria” (Scientific Reports, 2021)
Ends that are not written are not given here.

How the values were obtained:
Acinetobacter baumannii = test: VITEK 2 antimicrobial sensitivity characterization; assay type: cell-based; settings: VITEK 2 system, CLSI ranges
Method: (§1) This experiment was conducted by Omnix Medical, by JMI Laboratories (North Liberty, IA, USA) and by Aptuit (Verona) S.r.l. (Italy), an Evotec Company. All studies were performed according to Clinical and Laboratory Standards Institute guidelines[30] for the application of the broth microdilution method. Reference strains from American Type Culture Collection (ATCC) and clinical isolates from the Evotec EvostrAIn and the JMI Laboratories SENTRY surveillance program culture collections (Acinetobacter baumannii: ACC 00445, ACC 00527, ACC 00535, ATCC 17978, ATCC 19606, ATCC BAA-1793, ACC 01076, ACC 01077, NCTC 13420, JMI #1088100 and JMI #1001007; Klebsiella pneumoniae: ATCC 43816 and ATCC BAA-1705; Escherichia coli: ACC 01001 and ATCC 25922; Staphylococcus aureus: ATCC 29213, ATCC BAA-44 and ATCC 33591; Bacillus cereus: ATCC 14579; Enterococcus faecalis: ATCC 29212; Enterococcus faecium: ATCC BAA-2319) were used. The antimicrobial activity of OMN6 was determined by 12 serial two-fold dilutions in water of the 100-fold highest compound solution; 1 µL of each well was transferred into 96 microtiter plates (final concentration: 256–0.12 µg/mL). In most strains, same procedure was used to determine the colistin antimicrobial activity (final concentration: 32–0.015 µg/mL). Bacterial strains were sub-cultured on the agar plates and incubated for 18–24 h at 35 ± 2 °C in ambient air. Following incubation, the inoculum was prepared from isolated colonies and adjusted to 0.5 McFarland turbidity standard (1 to 2 × 10^8 colony-forming units/mL) in 0.9% saline. Bacterial suspension was then diluted 1:200 in Muller-Hinton broth (from BD; Becton, Dickinson and Company, Franklin Lakes, NJ, USA) and within 15 min 100 µL/well were dispensed. Growth-control wells and sterility-check wells (uninoculated well) were present in each plate. Plates were incubated for 18–24 h at 35 ± 2 °C in ambient air. […] The antimicrobial activity to other antibiotics on most bacterial strains was determined by Evotec using the antimicrobial sensitive test from the VITEK 2 automated microbiology system (bioMérieux SA, Marcy l'Etoile, France; data presented in Table S1), or by ATCC according to CLSI (Clinical and Laboratory Standards Institute) guidelines[30]
(§2) Table S1. Supplementary information about the resistance pattern of 14 bacterial strains used in the Minimum Inhibitory Concentration study presented in Table 1. The resistance pattern of the different bacterial isolates was characterized by broth microdilution studies (for colistin) or with the VITEK 2 system (for the other antibiotics).

Klebsiella pneumoniae = test: VITEK 2 antimicrobial sensitivity characterization; assay type: cell-based; settings: VITEK 2 system, CLSI ranges
Method: as §1, §2

Escherichia coli = test: VITEK 2 antimicrobial sensitivity characterization; assay type: cell-based; settings: VITEK 2 system, CLSI ranges
Method: as §1, §2

A. baumannii BAA-1793 = settings: determined by ATCC according to CLSI guidelines, ref ATCC; cited from earlier work; note: key: S, sensitive; I, intermediate; R, resistant
Text: Supplement 41598_2021_86155_MOESM1_ESM.docx, table 3: Table S3. Supplementary information about the resistance pattern of the bacterial strain A. baumannii BAA-1793 used in the Minimum Inhibitory Concentration study presented in Table 1.

HEK293T cells = assay type: cell-based
Method: HEK-293T17 cells (ATCC CRL-1573) were purchased from ATCC and cultured to 80% confluency according to the ATCC culture method, using high-glucose and L-Glutamine Dulbecco's Modified Eagle Medium (DMEM) medium (ATCC catalog number 30-2002) supplemented with 10% fetal bovine serum and 1% Penicillin–Streptomycin solution (all from Biological Industries). For the experiment purposes, 30,000 cells were transferred to a 96-well plate (experiment plate) in a final volume of 100 µL of medium. The experiment plate was incubated at 5% CO2 and 37 °C for approximately 18 h. After 18 h, medium was discarded, and cells were co-incubated with OMN6, Melittin (Sigma-Aldrich) or dimethyl sulfoxide (DMSO; MP Biomedical LLC, Solon, OH, USA) that were prepared in new medium at desired concentrations. The experiment plate was incubated at 5% CO2 and 37 °C for 24 h. Then, glutaraldehyde at a final concentration of 0.5% was added in all wells for 10 min for cell fixation. After washing the plate 3 times with DDW, the experiment plate was dried overnight. Then, cells were washed with 0.1 M Borate buffer (pH = 8.5) for 1 min. 100 µL Methylene Blue diluted in the same Borate buffer was added to all wells for 1 h. Wells were washed with DDW and plate was dried overnight. Color extraction was executed by adding 0.1 M HCl. After an incubation at 37 °C for 1 h, cell survival was determined via absorbance at 620 nm using a microplate reader.

Staphylococcus aureus = test: VITEK 2 antimicrobial sensitivity characterization; assay type: cell-based; settings: VITEK 2 system, CLSI ranges; note: key: S, sensitive; I, intermediate; R, resistant
Method: as §1, §2

Proteinase-K = target: T1, Proteinase-K (Parengyodontium album, UniProt P06873); test: Peptide stability to Proteinase-K (SDS-PAGE); assay type: in vitro ADME; settings: 10 µg peptide with 5 or 20 ng Proteinase-K (0.16 or 0.66 µg/mL), 2 h, 37 °C; 15% acrylamide SDS-PAGE, Coomassie stain
T1 construct: purchased Sigma-Aldrich
Method: 10 µg of synthetic cecropin A (Genscript, Piscataway, NJ, USA), OMN6, or bovine serum albumin (BSA; Sigma-Aldrich, St. Louis, MO, USA) were incubated with 5 or 20 ng Proteinase-K (Sigma-Aldrich; final treatment concentration of 0.16 or 0.66 µg/mL respectively) for 2 h at 37 °C, and separated on a 15% acrylamide gel (Bio-Rad, Hercules, CA, USA) by SDS-PAGE. The gel was then stained with Coomassie dye and excess color was removed over-night.

T1 sequence (P06873 106-384): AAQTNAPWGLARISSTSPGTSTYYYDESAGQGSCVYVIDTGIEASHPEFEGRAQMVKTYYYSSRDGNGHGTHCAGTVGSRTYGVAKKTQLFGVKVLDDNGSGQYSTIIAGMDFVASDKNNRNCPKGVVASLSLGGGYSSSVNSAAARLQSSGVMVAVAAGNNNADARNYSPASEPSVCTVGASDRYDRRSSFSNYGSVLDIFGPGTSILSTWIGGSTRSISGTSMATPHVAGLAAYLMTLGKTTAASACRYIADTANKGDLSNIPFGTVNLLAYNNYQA

Compound: CC(C)(O/N=C(\C(=O)N[C@@H]1C(=O)N2C(C(=O)[O-])=C(C[n+]3ccccc3)CS[C@H]12)c1csc(N)n1)C(=O)O [CAZ, ceftazidime]
- VITEK characterization (resistance range) (Acinetobacter baumannii; A. baumannii ACC 00445): R
- VITEK characterization (resistance range) (Acinetobacter baumannii; A. baumannii ACC 00527): R
- VITEK characterization (resistance range) (Acinetobacter baumannii; A. baumannii ACC 00535): R
- VITEK characterization (resistance range) (Acinetobacter baumannii; A. baumannii ATCC 17978): S
- VITEK characterization (resistance range) (Acinetobacter baumannii; A. baumannii ATCC 19606): I
- VITEK characterization (resistance range) (Klebsiella pneumoniae; K. pneumoniae ATCC 43816): S
- VITEK characterization (resistance range) (Klebsiella pneumoniae; K. pneumoniae ATCC BAA-1705): R
- VITEK characterization (resistance range) (Escherichia coli; E. coli ACC 01001): S
- VITEK characterization (resistance range) (Escherichia coli; E. coli ATCC 25922): S
- Resistance pattern (A. baumannii BAA-1793): R

Compound: CO/N=C(\C(=O)N[C@@H]1C(=O)N2C(C(=O)O)=C(COC(C)=O)CS[C@H]12)c1csc(N)n1 [CTX, cefotaxime]
- VITEK characterization (resistance range) (Acinetobacter baumannii; A. baumannii ACC 00445): R
- VITEK characterization (resistance range) (Acinetobacter baumannii; A. baumannii ACC 00527): R
- VITEK characterization (resistance range) (Acinetobacter baumannii; A. baumannii ACC 00535): R
- VITEK characterization (resistance range) (Acinetobacter baumannii; A. baumannii ATCC 17978): S
- VITEK characterization (resistance range) (Acinetobacter baumannii; A. baumannii ATCC 19606): I
- VITEK characterization (resistance range) (Klebsiella pneumoniae; K. pneumoniae ATCC 43816): S
- VITEK characterization (resistance range) (Klebsiella pneumoniae; K. pneumoniae ATCC BAA-1705): R
- VITEK characterization (resistance range) (Escherichia coli; E. coli ACC 01001): S
- VITEK characterization (resistance range) (Escherichia coli; E. coli ATCC 25922): S
- Resistance pattern (A. baumannii BAA-1793): R

Compound: C[S+](C)[O-] [DMSO, dimethyl sulfoxide]
- Cytotoxicity on HEK293T cells (HEK293T cells): > 90%

Compound: C[C@@H](O)[C@H]1C(=O)N2C(C(=O)O)=C(SCCN=CN)C[C@H]12 [IMP, imipenem]
- VITEK characterization (resistance range) (Acinetobacter baumannii; A. baumannii ACC 00445): R
- VITEK characterization (resistance range) (Acinetobacter baumannii; A. baumannii ACC 00527): R
- VITEK characterization (resistance range) (Acinetobacter baumannii; A. baumannii ACC 00535): I
- VITEK characterization (resistance range) (Acinetobacter baumannii; A. baumannii ACC 01076): R
- VITEK characterization (resistance range) (Acinetobacter baumannii; A. baumannii ACC 01077): R
- VITEK characterization (resistance range) (Acinetobacter baumannii; A. baumannii ATCC 17978): S
- VITEK characterization (resistance range) (Acinetobacter baumannii; A. baumannii ATCC 19606): S
- VITEK characterization (resistance range) (Acinetobacter baumannii; A. baumannii NCTC 13420): I
- VITEK characterization (resistance range) (Klebsiella pneumoniae; K. pneumoniae ATCC 43816): S
- VITEK characterization (resistance range) (Klebsiella pneumoniae; K. pneumoniae ATCC BAA-1705): R
- VITEK characterization (resistance range) (Escherichia coli; E. coli ACC 01001): S
- VITEK characterization (resistance range) (Escherichia coli; E. coli ATCC 25922): S
- VITEK characterization (resistance range) (Staphylococcus aureus; S. aureus ATCC 29213): S
- VITEK characterization (resistance range) (Staphylococcus aureus; S. aureus ATCC 33591): R
- Resistance pattern (A. baumannii BAA-1793): R

Compound: KWKLFKKIEKVGQNIRDGIIKAGPAVAVVGQATQIAK-NH2 [Cecropin A]
- Stability after exposure to Proteinase-K (Proteinase-K): major degradation
